Results as given in patent publication US10766903B2 (ALMAC DISCOVERY LIMITED, priority 2016, dated 2020).

Molecular target: USP7 (Homo sapiens (Human), UniProt Q93009)
Assay: USP7 fluorescence polarisation (FP) biochemical assay, ubiquitin-Lys-TAMRA substrate
Conditions: Table 3, effect of the R2 substituent; read-out: USP7 IC50
Procedure: Measurement of USP7 Inhibitory Activity
USP7 activity was monitored in a fluorescence polarisation (FP) homogeneous assay using the isopeptide ubiquitin-Lys-TAMRA substrate (U-558, Boston Biochem). Full-length USP7 was purchased from Boston Biochem (His6-USP7FL, E-519). Unless otherwise stated, all other reagents were purchased from Sigma-Aldrich. Enzymatic reactions were conducted in black flat-bottom polystyrene 384-well plates (Nunc) and 15 μL total volume. USP7 (2.5 nM, 5 μL) was incubated in assay buffer (50 mM HEPES (pH 7.2), 150 mM NaCl, 0.5 mM EDTA, 5 mM DTT, 0.05% BSA (w/v), 0.05% CHAPS) in the presence or absence of inhibitor (5 μl). Inhibitors were stored as 10 mM DMSO stocks in an inert environment (low humidity, dark, low oxygen, room temperature) using a Storage Pod System and serial dilutions were prepared in buffer just prior to the assay (from 200 to 0.1 μM, 8 dp curve). […] FP was measured every 15 min over a period of 1.5 h (within the linear range of the assay) using a Synergy 4 plate reader (BioTek) exciting at 530 nm and measuring the amount of parallel and perpendicular light at 575 nm. The FP signal was subsequently normalised to the control without compound present.

Chain of USP7 (Q93009 whole entry): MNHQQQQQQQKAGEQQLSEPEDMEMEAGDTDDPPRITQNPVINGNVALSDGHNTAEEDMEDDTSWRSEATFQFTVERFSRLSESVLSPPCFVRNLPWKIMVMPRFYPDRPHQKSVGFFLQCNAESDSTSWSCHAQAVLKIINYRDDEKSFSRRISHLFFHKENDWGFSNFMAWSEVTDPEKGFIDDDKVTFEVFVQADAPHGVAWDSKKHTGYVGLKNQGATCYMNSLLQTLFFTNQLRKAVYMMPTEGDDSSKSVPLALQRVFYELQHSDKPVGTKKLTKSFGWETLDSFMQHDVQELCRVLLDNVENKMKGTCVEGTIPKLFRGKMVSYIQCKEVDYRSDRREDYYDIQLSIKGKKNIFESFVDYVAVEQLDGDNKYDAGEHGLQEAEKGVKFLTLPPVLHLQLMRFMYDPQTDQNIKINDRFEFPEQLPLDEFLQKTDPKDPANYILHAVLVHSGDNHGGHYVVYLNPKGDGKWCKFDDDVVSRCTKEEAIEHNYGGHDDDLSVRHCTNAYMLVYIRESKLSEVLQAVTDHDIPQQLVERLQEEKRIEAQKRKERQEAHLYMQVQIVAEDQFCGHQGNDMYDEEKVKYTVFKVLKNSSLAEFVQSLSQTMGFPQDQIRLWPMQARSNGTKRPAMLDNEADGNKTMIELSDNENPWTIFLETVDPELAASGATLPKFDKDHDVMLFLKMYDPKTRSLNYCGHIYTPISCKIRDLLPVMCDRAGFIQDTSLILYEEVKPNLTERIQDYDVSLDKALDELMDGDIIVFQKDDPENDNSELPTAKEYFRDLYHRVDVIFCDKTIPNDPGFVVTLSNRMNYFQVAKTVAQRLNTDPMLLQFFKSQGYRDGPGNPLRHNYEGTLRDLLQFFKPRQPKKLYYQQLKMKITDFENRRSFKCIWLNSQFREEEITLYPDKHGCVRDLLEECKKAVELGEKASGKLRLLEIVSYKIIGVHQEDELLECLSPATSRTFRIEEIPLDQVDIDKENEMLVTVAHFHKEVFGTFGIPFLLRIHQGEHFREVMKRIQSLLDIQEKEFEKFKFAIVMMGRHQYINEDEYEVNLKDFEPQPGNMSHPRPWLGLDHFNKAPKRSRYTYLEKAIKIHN

Row | IC50 [nM] | SMILES
1 | 3000 | C[C@H](CC(=O)N1CCC(O)(Cn2cnc3cn(C)nc3c2=O)CC1)c1ccccc1 [Example 20, (R)-6-((4-Hydroxy-1-(3-phenylbutanoyl)piperidin-4-yl)methyl)-2-methyl-2H-pyrazolo[4,3-d]pyrimidin-7(6H)-one]

Same assay, conditions: Table 4, biochemical assay; average of at least duplicate experiments; read-out: USP7 IC50

Row | SMILES | IC50 [nM]
2 | C=C(C)[C@@H](CC(=O)N1CCC(O)(Cn2cnc3c(-c4ccccc4)n(C)nc3c2=O)CC1)C(F)(F)F [Example 36, (R)-6-((4-Hydroxy-1-(4-methyl-3-(trifluoromethyl)pent-4-enoyl)piperidin-4-yl)methyl)-2-methyl-3-phenyl-2H-pyrazolo[4,3-d]pyrimidin-7(6H)-one] | 1000 to 200000
3 | CC1(C(=O)N2CCC(O)(Cn3cnc4c(cc(Cl)n4-c4ccc(F)cc4)c3=O)CC2)CC1 [Example 204, 6-Chloro-7-(4-fluorophenyl)-3-((4-hydroxy-1-(1-methylcyclopropanecarbonyl)piperidin-4-yl)methyl)-3H-pyrrolo[2,3-d]pyrimidin-4(7H)-one] | < 250
4 | C[C@H](CC(=O)N1CCC(O)(Cn2cnc3c(-c4ccc(C5(N)CCC5)cc4)n(C)nc3c2=O)CC1)c1ccccc1 [Example 182, (R)-3-(4-(1-Aminocyclobutyl)phenyl)-6-((4-hydroxy-1-(3-phenylbutanoyl)piperidin-4-yl)methyl)-2-methyl-2H-pyrazolo[4,3-d]pyrimidin-7(6H)-one] | < 250
5 | Cc1nn(C)cc1Nc1cc(=O)n(CC2(O)CCN(C(=O)C[C@@H](C)c3ccccc3)CC2)cn1 [Example 170, (R)-6-((1,3-dimethyl-1H-pyrazol-4-yl)amino)-3-((4-hydroxy-1-(3-phenylbutanoyl)piperidin-4-yl)methyl)pyrimidin-4(3H)-one] | 1000 to 200000
6 | CC1(C(=O)N2CCC(O)(Cn3cnc4c(cc(Cl)n4-c4cccc(N5CCOCC5)c4)c3=O)CC2)CC1 [Example 226, 6-Chloro-3-((4-hydroxy-1-(1-methylcyclopropanecarbonyl)piperidin-4-yl)methyl)-7-(3-morpholinophenyl)-3H-pyrrolo[2,3-d]pyrimidin-4(7H)-one] | < 250
7 | Cn1nc2c(=O)n(CC3(O)CCN(C(=O)C[C@H](c4ccccc4)C(F)(F)F)CC3)cnc2c1-c1ccc(CN)c(C(F)(F)F)c1 [Example 123, (R)-3-(4-(Aminomethyl)-3-(trifluoromethyl)phenyl)-6-((4-hydroxy-1-(4,4,4-trifluoro-3-phenylbutanoyl)piperidin-4-yl)methyl)-2-methyl-2H-pyrazolo[4,3-d]pyrimidin-7(6H)-one] | < 250
8 | O=C(c1cnc(C2CC2)o1)N1CCC(O)(Cn2cnc3c(cc(Cl)n3-c3ccc(Cl)cc3)c2=O)CC1 [Example 228, 6-Chloro-7-(4-chlorophenyl)-3-((1-(2-cyclopropyloxazole-5-carbonyl)-4-hydroxypiperidin-4-yl)methyl)-3H-pyrrolo[2,3-d]pyrimidin-4(7H)-one] | < 250
9 | C[C@H](CN1CCCC1)Nc1cc(=O)n(CC2(O)CCN(C(=O)C[C@@H](C)c3ccccc3)CC2)cn1 [Example 60, 3-((4-Hydroxy-1-((R)-3-phenylbutanoyl)piperidin-4-yl)methyl)-6-(((R)-1-(pyrrolidin-1-yl)propan-2-yl)amino)pyrimidin-4(3H)-one, Formic Acid] | < 250
10 | C[C@H](CC(=O)N1CCC(O)(Cn2cnc(NCc3ccnn3C)cc2=O)CC1)c1ccccc1 [Example 154, (R)-3-((4-hydroxy-1-(3-phenylbutanoyl)piperidin-4-yl)methyl)-6-(((1-methyl-1H-pyrazol-5-yl)methyl)amino)pyrimidin-4(3H)-one] | 1000 to 200000
11 | Cc1c(Cl)ncn(CC2(O)CCN(C(=O)C[C@@H](C)c3ccccc3)CC2)c1=O [Example 44, (R)-6-Chloro-3-((4-hydroxy-1-(3-phenylbutanoyl)piperidin-4-yl)methyl)-5-methylpyrimidin-4(3H)-one] | 1000 to 200000
12 | C[C@H](CC(=O)N1CCC(O)(Cn2cnc(N3CC4(CCC4(F)F)C3)cc2=O)CC1)c1ccccc1 [Example 173, (R)-6-(5,5-difluoro-2-azaspiro[3.3]heptan-2-yl)-3-((4-hydroxy-1-(3-phenylbutanoyl)piperidin-4-yl)methyl)pyrimidin-4(3H)-one] | 1000 to 200000
13 | Cn1cc(-c2cc(-n3c(Cl)cc4c(=O)n(CC5(O)CCN(C(=O)c6cnc(C7CC7)o6)CC5)cnc43)ccc2F)cn1 [Example 232, 6-Chloro-3-((1-(2-cyclopropyloxazole-5-carbonyl)-4-hydroxypiperidin-4-yl)methyl)-7-(4-fluoro-3-(1-methyl-1H-pyrazol-4-yl)phenyl)-3H-pyrrolo[2,3-d]pyrimidin-4(7H)-one] | < 250

Now from value to compound:

Row | IC50 [nM] | SMILES
14 | 1000 to 200000 | CS(=O)(=O)c1nc2ncn(CC3(O)CCN(C(=O)CCc4ccccc4)CC3)c(=O)c2s1 [Example 92, 6-((4-Hydroxy-1-(3-phenylpropanol)piperidin-4-yl)methyl)-2-(methylsulfonyl)thiazolo[4,5-d]pyrimidin-7(6H)-one]
15 | 1000 to 200000 | COC[C@H]1CCCN1CCNc1cc(=O)n(CC2(O)CCN(C(=O)C[C@@H](C)c3ccccc3)CC2)cn1 [Example 70, 3-((4-Hydroxy-1-((R)-3-phenylbutanoyl)piperidin-4-yl)methyl)-6-((2-((R)-2-(methoxymethyl)pyrrolidin-1-yl)ethyl)amino)pyrimidin-4(3H)-one]
16 | 1000 to 200000 | CNc1nc2ncn(CC3(O)CCN(C(=O)CCc4ccccc4)CC3)c(=O)c2s1 [Example 93, 6-((4-Hydroxy-1-(3-phenylpropanoyl)piperidin-4-yl)methyl)-2-(methylamino)thiazolo[4,5-d]pyrimidin-7(6H)-one]
17 | 1000 to 200000 | C[C@H](CC(=O)N1CCC(O)(Cn2cnc(N3CCC[C@@H]3CO)cc2=O)CC1)c1ccccc1 [Example 140, 3-((4-hydroxy-1-((R)-3-phenylbutanoyl)piperidin-4-yl)methyl)-6-((R)-2-(hydroxymethyl)pyrrolidin-1-yl)pyrimidin-4(3H)-one]
18 | 1000 to 200000 | Cn1nc2c(=O)n(CC3(O)CCN(C(=O)OCc4ccccc4)CC3)cnc2c1-c1ccc(CN)cc1 [Example 112, Benzyl 4-((3-(4-(aminomethyl)phenyl)-2-methyl-7-oxo-2,7-dihydro-6H-pyrazolo[4,3-d]pyrimidin-6-yl)methyl)-4-hydroxypiperidine-1-carboxylate]
19 | 1000 to 200000 | C[C@H](CC(=O)N1CCC(O)(Cc2cnc(-c3ccccc3)cn2)CC1)c1ccccc1 [Example 115, (R)-1-(4-Hydroxy-4-((5-phenylpyrazin-2-yl)methyl)piperidin-1-yl)-3-phenylbutan-1-one]
20 | < 250 | Cn1nc2c(=O)n(CC3(O)CCN(C(=O)C[C@H](c4ccccc4)C(F)F)CC3)cnc2c1-c1ccc(CN)cc1 [Example 80, (R)-3-(4-(Aminomethyl)phenyl)-6-((1-(4,4-difluoro-3-phenylbutanoyl)-4-hydroxypiperidin-4-yl)methyl)-2-methyl-2H-pyrazolo[4,3-d]pyrimidin-7(6H)-one]
21 | < 250 | O=C(c1cnc(C2CC2)o1)N1CCC(O)(Cn2cnc3c(cc(Cl)n3-c3ccc(F)cc3)c2=O)CC1 [Example 205, 6-Chloro-3-((1-(2-cyclopropyloxazole-5-carbonyl)-4-hydroxypiperidin-4-yl)methyl)-7-(4-fluorophenyl)-3H-pyrrolo[2,3-d]pyrimidin-4(7H)-one]
22 | 250 to 999 | Cn1cc(C(=O)N2CCC(O)(Cn3cnc4c(cc(Cl)n4-c4ccc(Cl)cc4)c3=O)CC2)cn1 [Example 229, 6-Chloro-7-(4-chlorophenyl)-3-((4-hydroxy-1-(1-methyl-1H-pyrazole-4-carbonyl)piperidin-4-yl)methyl)-3H-pyrrolo[2,3-d]pyrimidin-4(7H)-one]
23 | 1000 to 200000 | C[C@H](CC(=O)N1CCC(O)(Cn2cnc3cn(C)nc3c2=O)CC1)c1ccccc1 [Example 20, (R)-6-((4-Hydroxy-1-(3-phenylbutanoyl)piperidin-4-yl)methyl)-2-methyl-2H-pyrazolo[4,3-d]pyrimidin-7(6H)-one]
24 | 1000 to 200000 | Cn1nc2c(=O)n(CC3(O)CCN(C(=O)c4cnc(C5CC5)o4)CC3)cnc2c1-c1ccccc1 [Example 196, 6-((1-(2-Cyclopropyloxazole-5-carbonyl)-4-hydroxypiperidin-4-yl)methyl)-2-methyl-3-phenyl-2H-pyrazolo[4,3-d]pyrimidin-7(6H)-one]
25 | < 250 | O=C(c1cnc(C2CC2)o1)N1CCC(O)(Cn2cnc3c(cc(Br)n3-c3ccccc3)c2=O)CC1 [Example 222, 6-Bromo-3-((1-(2-cyclopropyloxazole-5-carbonyl)-4-hydroxypiperidin-4-yl)methyl)-7-phenyl-3H-pyrrolo[2,3-d]pyrimidin-4(7H)-one]

Same assay, conditions: USP7 IC50, Table 4, biochemical assay; average of at least duplicate experiments

Row | IC50 [nM] | SMILES
26 | 250 to 999 | Cc1nc2c(=O)n(CC3(O)CCN(C(=O)C[C@H](c4ccccc4)C(F)(F)F)CC3)cnc2n1-c1ccccc1 [Example 189, (R)-1-((4-Hydroxy-1-(4,4,4-trifluoro-3-phenylbutanoyl)piperidin-4-yl)methyl)-8-methyl-9-phenyl-1H-purin-6(9H)-one]
27 | 250 to 999 | Cn1nc2c(=O)n(CC3(O)CCN(C(=O)C[C@H](c4ccccc4)C(F)(F)F)CC3)cnc2c1C1CCCCC1 [Example 136, (R)-3-Cyclohexyl-6-((4-hydroxy-1-(4,4,4-trifluoro-3-phenylbutanoyl)piperidin-4-yl)methyl)-2-methyl-2H-pyrazolo[4,3-d]pyrimidin-7(6H)-one]

Row | SMILES | IC50 [nM]
28 | C[C@H](CC(=O)N1CCC(O)(Cn2cnc(-c3cnn(CCN(C)C)c3)cc2=O)CC1)c1ccccc1 [Example 54, (R)-6-(1-(2-(Dimethylamino)ethyl)-1H-pyrazol-4-yl)-3-((4-hydroxy-1-(3-phenylbutanoyl)piperidin-4-yl)methyl)pyrimidin-4(3H)-one, Formic Acid] | 250 to 999
